The subject of series [1] is spontaneous movements of rats. The experiment in a line: Determination of the Motor Activity. To be noted: Rattus norvegicus, po, 2 hours, dosage which reduces mobility to 40% of untreated animals. The series is classed as in vivo. How it is done:
Groups each comprising three rats (200 g) are confined in large cages. The test animals can adapt themselves to the new surroundings for 30 minutes; subsequently the test substance is administered to them orally. The spontaneous movements are registered automatically for 2 hours by means of infrared light barriers. The ED40 is that dosage which reduces to 40% the mobility of the test animals in comparison to the untreated animals.

A short description of a further series: Anti-pentetrazole Test. It is filed as in vivo, female mice. The conditions noted are these: Mus musculus, po, 0.5 h; p.o., mice, 30 minutes before i.v. pentetrazole; dosage giving convulsive threshold ratio treated:untreated of 2:1; read-out: Anti-pentetrazole test, PR 2.0. The protocol:
The compound to be tested is administered orally to groups of 6 female mice (19-21 g) and 30 minutes later there is administered intravenously (0.375 ml/minute) a 0.5 percent solution of pentetrazole in sodium chloride solution. The time from the beginning of the infusion until tonic stretchings of the hind limbs appear is measured and therefrom there is calculated the dosage of penetetrazole administered up to this point in time, which is denoted as the convulsive threshold dosage. The PR2.0 is that dosage of the test substance which is required in order that the ratio of the convulsive threshold dosage in treated animals to the convulsive threshold dosage in untreated animals amounts to 2:1.

Series [2] is described as follows: Anti-3-mercaptopropionic Acid Test. The series is classed as in vivo, female mice. To be noted: Mus musculus, po, 0.5 h; p.o., mice, 30 minutes before 48.8 mg/kg i.p. 3-mercaptopropionic acid; Probit method. The protocol: The compound to be tested is administered orally to female mice (19-21 g) and 30 minutes later there are administered i.p. 48.8 mg/kg of 3-mercaptopropionic acid, a dosage which in untreated animals causes after 4 minutes emprosthotonus and tonic stretching of the hind limbs. 12 mice are used per dosage. At least 6 to 8 different dosages are tested. The number of protected test animals per dosage group is determined and the ED50 is determined therefrom by means of the Probit method.

For the next series, the system named is squirrel monkeys. The experiment in a line: Conflict Test in Monkeys. To be noted: for minimal effective dose: Saimiri, in Primates, po, read-out: Conflict test in monkeys, MED (smallest significant effective dosage); for Conflict test in monkeys, HED (highest significant effective dosage): p.o. It is filed as in vivo, male squirrel monkeys. The protocol:
A two-key Skinner box with a feed pellet dispenser is used as the test apparatus. 13 fasted, male squirrel monkeys weighing 0.8 to 1 kg are used as the test animals. Upon pressing one of the keys the test animals receive a feed pellet on average every 6 minutes. Upon pressing the other key the test animals receive a feed pellet four times more frequently (i.e. on average every 1.5 minutes), but they are simultaneously punished with an electric foot-shock. The foot-shock causes a reduction in the pressing of the key which gives more frequent feed pellets. […] The smallest (MED) and the highest significant effective dosage (HED) are thereby determined.

A further series has as its system rats. In words: Conflict Test in Rats. The conditions noted are these: Rattus norvegicus, po, 30 minutes before 1-hour conflict test; Wilcoxon test; read-out: Conflict test in rats, FSD (first significant anxiolytically-effective dosage). The series is classed as in vivo. How it is done:
The test apparatus is a one-key Skinner box with a feed pellet dispenser. For the testing of potential anxiolytics there are generally used 8 fasted rats per substance and dosage. In this case, there are used rats only which respond to the known anxiolytic chlordiazepoxide.
The test substances, which are dissolved or suspended in a mixture of 10 ml of distilled water and 2 drops of Tween 80, are administered to the test animals with the aid of a probang 30 minutes before the 1-hour conflict test. During the experiment, in which each key press for a feed pellet is combined with a foot-shock (conflict), the number of key operations is registered. In this case, each test animal serves as its own control, in that it is pre-treated once with test substance and once with sodium chloride solution.
The first significant anxiolytically-effective dosage (FSD) is determined with the Wilcoxon test (comparison of pairs) by comparing the number of key operations in the main test (feed pellet+foot-shock, after pre-treatment with test substance) directly with the number of key operations in the control test (feed pellet+foot-shock, after pre-treatment with sodium chloride solution).

A short description of series [3]: acute toxicity, single oral administration to mice. The conditions noted are these: mouse, in vivo, p.o. The source says:
Some representative members of the class of compound defined by formula I have been investigated in the tests described below, and it has been shown that in rats and monkeys they display pronounced anxiolytic properties. Moreover, the Table contains data concerning the acute toxicity of these compounds (LD50 in the case of single oral administration to mice).

By ED50 is commonly meant the dose at which the effect has come halfway, by size or by number of responders. The low end stands for greater potency, the high end for weaker potency. One may read the LD50 as the dose expected to kill half of the subjects tested. High values mean a less toxic substance, low ones a more toxic substance.

The structures appear in SMILES notation.

Take `O=c1[nH]nc2n1-c1ccc(Cl)cc1C(c1ccccc1F)=CC2` [Compound A, 8-chloro-6-(2-fluorophenyl)-2,4-dihydro-1H-s-triazolo[4,3-a][1]benzazepin-1-one]: in series [1], the ED40 is more than 300 mg/kg. In “Anti-pentetrazole Test”, the ED (2-fold convulsive threshold) came to 4.1 mg/kg. This compound also yielded an ED50 in series [2] of 6 mg/kg. In the series with squirrel monkeys, the minimal effective dose came to 1.25 mg/kg and the “Conflict test in monkeys, HED (highest significant effective dosage)” value was more than 80 mg/kg. Further, the minimal effective dose in the series with rats amounted to 3 mg/kg. For the same compound, the LD50 in series [3] was more than 5000 mg/kg.

`NCc1nnc2n1-c1ccc(Cl)cc1C(c1ccccc1F)=CC2` [Compound B, 1-(aminomethyl)-8-chloro-6-(2-fluorophenyl)-4H-s-triazolo[4,3-a][1]benzazepine] had an ED40 in series [1] of more than 100 mg/kg. Moreover, the ED (2-fold convulsive threshold) in the series “Anti-pentetrazole Test” amounted to 5.8 mg/kg. In series [2], this compound returned an ED50 of 3.7 mg/kg. Further, the minimal effective dose worked out at 1.25 mg/kg in the series on squirrel monkeys and 100 mg/kg in the series on rats. In addition, the “Conflict test in monkeys, HED (highest significant effective dosage)” value in the series on squirrel monkeys is listed as 10 mg/kg. In addition, the LD50 in series [3] was in the range of 1000 to 2000 mg/kg.

Consider `Cc1nnc2n1-c1ccc(Cl)cc1C(c1ccccc1F)=CC2` [Compound C, 8-chloro-6-(2-fluorophenyl)-1-methyl-4H-s-triazolo[4,3-a][1]benzazepine], for which, in series [1], the ED40 was determined as 77 mg/kg. Further, the ED (2-fold convulsive threshold) in “Anti-pentetrazole Test” was found to be 4 mg/kg. For the same compound, it took a dose of 1.9 mg/kg to reach the 50% effect level in series [2] (ED50). Besides, in the series on squirrel monkeys, the minimal effective dose worked out at 10 mg/kg and the “Conflict test in monkeys, HED (highest significant effective dosage)” value was more than 80 mg/kg. For the same compound, the minimal effective dose in the series with rats amounted to 3 mg/kg. Besides, the LD50 in series [3] is more than 5000 mg/kg.

These data come from US4464300A, “Triazolo benzazepines” (Hoffmann-La Roche Inc., priority 1981, dated 1984).
